Data on ten molecules can be found in patent publication US8497376B2, “Inhibitors of c-fms kinase” (Janssen Pharmaceutica N.V., priority 2007, dated 2013).

Data set [1] relates to mouse bone-marrow derived macrophages. Nature of the data set: CSF-1-driven mouse bone-marrow derived macrophages assay (BrDU incorporation). The class given is cell-based. The note with it: CSF-1-driven proliferation, 30 hrs culture. Here is the method:
Macrophages were derived by culturing mouse bone marrow in alpha-MEM supplemented with 10% FCS and 50 ng/ml recombinant mouse CSF-1 in bacteriologic dishes. On the sixth day, macrophages were detached from dishes, washed, and resuspended to 0.05 million cells/ml in alpha-MEM containing 10% FCS. One hundred ul of cell suspension were distributed per well into 96 well culture plates. Wells were further supplemented with the addition of 50 ul media containing 15 ng/ml CSF-1, 3 uM Indomethacin, and 3× of a dilution series of test compounds. The cells were cultured for 30 hrs at 37 degrees and 5% CO2. During the final six hours, cultures were supplemented with an additional 30 ul of media containing a 1:500 dilution of bromodeoxyuridine (BrDU). At the end of the culture period, the plates were spun at 1000 RPM for 1 minute and 130 ul of media was removed with a pipet and replaced with 150 ul of fixative solution for 1 hour@room temperature. The fixative was then dispelled from the plates and the plates allowed to air dry. Incorporation of BrDU into the fixed, dried cells was quantified using a specific ELISA.

Data set [2] relates to streptococcal cell wall (SCW) model of arthritis in rats. The data set is described as follows: SCW arthritis in rats (chronic phase, therapeutic dosing). The class given is in vivo, rat. As to conditions: for Number of steps taken using hind limbs in a thirty second observation period: average of three rats. The source says:
Purpose: A polyarthritis occurs in female Lewis rats following i.p. administration of streptococcal cell wall (SCW) components. The model has an acute non-erosive phase (days 3-7) that is complement and neutrophil dependent and which resolves. A chronic erosive phase begins at about day ten and is dependent on the development of specific T cell immunity to SCW, and possibly to self-antigens. The SCW-induced model has been used less frequently for pharmaceutical testing than the adjuvant-induced or collagen-induced models of arthritis, but each model predicts accurately the anti-inflammatory potential of TNF-inhibitors. The chronic phase of the SCW model is macrophage dependent.
Method: Female Lewis rats (80-100 gm each) were purchased from Charles River. Streptococcal cell wall peptidoglycan-polysaccharide polymers (PG-PS 10S) were purchased from BD (Cat#210866). PG-PS 10S was vortexed for 30 seconds to thoroughly mix the material and sonicated at low energy levels (level 6) for 3 min with a probe type sonicator prior to injection. On day 0, sixty rats were anesthetized using isoflurane, and injected i.p. with 15 μg of rhamnose/gram body weight (BW) in the lower left quadrant of the abdomen. Ten rats were treated in a similar manner with sterile saline.
(§1) Chronic, T-cell dependent, erosive arthritis was severe by day 20 at which time twice daily oral dosing was commenced until sacrificed on day 32 to determine if the compound of Example 15 (hereinafter, Compound A) can reverse established disease.
(§2) Compound A was formulated in 5% solutol, 5% ethanol, 90% water. The dose volume was 5 ml/kg.
Left and right hind ankles of each rat were measured with calipers every day for the first six days (post-injection) and then at least every two or three days for the remainder of the study. Ankles were assigned a clinical score based on erythema and swelling as follows: 1=ankle only; 2=ankle and proximal half of tarsal joint; 3=ankle and entire tarsal joint; 4=involvement of the entire paw including digits. Animal scores represented the sum of the two hind paws.
Disease reversal was accompanied by restoration of function. To assess function, three representative rats per group were videotaped for thirty seconds on days 19 and 32, and steps taken with hind limbs were counted and reported in Table 3. On day 19 following SCW, rats ambulated primarily using front paws. Hind paws were nearly immobilized.

A further data set is described as follows: in vivo. As to conditions: Lewis, rat, po. Here is the method:
as §1, §2
Exposure: Two hours following the last dose of 3, 10 and 20 mpk, plasma levels of Compound A were 247±22, 802±35, and 1475±70 ng/ml, respectively (mean±SEM).

The target in the next data set is c-fms (Homo sapiens (Human), UniProt P07333). Nature of the data set: Autophosphorylation fluorescence polarization competition immunoassay for c-fms inhibition. The class given is biochemical. The note with it: 10 nM c-fms, 1 mM ATP; average of three independent measurements. Here is the method: The assay buffer used was 100 mM 4-(2-hydroxyethyl)piperazine1-ethanesulfonic acid (HEPES), pH 7.5, 1 mM 1,4-dithio-DL-threitol (DTT), 0.01% (v/v) Tween-20. Compounds were diluted in assay buffer containing 4% dimethylsulfoxide (DMSO) just prior to the assay. […] The kinase reaction was initiated by adding 2 μL of 5 mM ATP (Sigma) in assay buffer. The final concentrations in the assay were 10 nM c-fms, 1 mM ATP, 5 mM MgCl2, 2% DMSO. Control reactions were ran in each plate: in positive and negative control wells, assay buffer (made 4% in DMSO) was substituted for the compound; in addition, positive control wells received 1.2 μL of 50 mM ethylenediaminetetraaceticacid (EDTA). The plates were incubated at room temperature for 45 min. At the end of the incubation, the reaction was quenched with 1.2 μL of 50 mM EDTA (EDTA was not added to the positive control wells at this point; see above). Following a 5-min incubation, each well received 10 μL of a 1:1:3 mixture of anti-phosphotyrosine antibody, 10×, PTK green tracer, 10× (vortexed), FP dilution buffer, respectively (all from PanVera, cat. # P2837). The plate was covered, incubated for 30 min at room temperature and the fluorescence polarization was read on the Analyst. The instrument settings were: 485 nm excitation filter; 530 nm emission filter; Z height: middle of well; G factor: 0.93. […] The reported IC50 values are averages of three independent measurements.

Counter-ions that a name gives are not always drawn. Like-named read-outs stand apart in the source and are kept apart here.

Chain of c-fms (P07333 20-972): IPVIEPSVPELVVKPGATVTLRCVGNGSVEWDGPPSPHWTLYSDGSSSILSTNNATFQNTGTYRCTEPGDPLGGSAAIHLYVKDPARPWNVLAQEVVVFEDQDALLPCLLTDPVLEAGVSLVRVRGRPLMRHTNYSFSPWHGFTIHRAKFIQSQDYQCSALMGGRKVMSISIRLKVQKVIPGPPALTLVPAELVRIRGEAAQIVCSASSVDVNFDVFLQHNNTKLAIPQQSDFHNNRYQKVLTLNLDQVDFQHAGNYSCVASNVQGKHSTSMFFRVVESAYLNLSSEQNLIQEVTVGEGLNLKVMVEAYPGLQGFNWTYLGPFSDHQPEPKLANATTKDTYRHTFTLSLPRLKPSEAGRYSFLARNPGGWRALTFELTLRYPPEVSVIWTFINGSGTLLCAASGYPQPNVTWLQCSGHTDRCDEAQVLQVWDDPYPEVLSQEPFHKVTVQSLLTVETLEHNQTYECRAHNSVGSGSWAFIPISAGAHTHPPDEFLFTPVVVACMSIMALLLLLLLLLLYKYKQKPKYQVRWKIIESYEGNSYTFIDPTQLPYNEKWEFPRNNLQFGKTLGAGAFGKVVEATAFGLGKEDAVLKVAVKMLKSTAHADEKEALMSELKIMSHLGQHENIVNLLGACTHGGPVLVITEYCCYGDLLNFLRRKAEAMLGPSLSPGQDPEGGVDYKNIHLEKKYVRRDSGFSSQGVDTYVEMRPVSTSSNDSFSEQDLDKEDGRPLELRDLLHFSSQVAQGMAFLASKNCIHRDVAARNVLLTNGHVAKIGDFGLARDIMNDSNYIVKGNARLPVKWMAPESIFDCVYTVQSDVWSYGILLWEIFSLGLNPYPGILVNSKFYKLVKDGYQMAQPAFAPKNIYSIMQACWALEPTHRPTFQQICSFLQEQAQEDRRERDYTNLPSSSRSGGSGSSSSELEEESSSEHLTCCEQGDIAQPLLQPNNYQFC

In general, IC50 refers to the concentration at which inhibition is half-maximal. Molecule `CC1(C)CC=C(c2nc(C3CC(C)(C)OC(C)(C)C3)ccc2NC(=O)c2nc(C#N)c[nH]2)CC1` [Example 15, 4-Cyano-1H-imidazole-2-carboxylic acid[2-(4,4-dimethyl-cyclohex-1-enyl)-6-(2,2,6,6-tetramethyl-tetrahydro-pyran-4-yl)-pyridin-3-yl]-amide] came in with an IC50 in data set [1] (Mus musculus, BMDM) of 6.1 nM. The “Number of steps taken using hind limbs in a thirty second observation period” value in data set [2] (Day 19 (before treatment), 3 mg/kg group) was determined as 1.7; in data set [2] (Day 19 (before treatment), 10 mg/kg group), 1.3; in data set [2] (Day 19 (before treatment), 20 mg/kg group) it was 1.3; in data set [2] (Day 32, 3 mg/kg oral b.i.d.), 7.7; in data set [2] (Day 32, 10 mg/kg oral b.i.d.) it was 7.3; in data set [2] (Day 32, 20 mg/kg oral b.i.d.), 6. Moreover, the “use of hind limbs (function)” value in data set [2] (day 32, rats treated with Compound A) is reported as “used hind limbs in a normal fashion”. Moreover, the “paw swelling (caliper measurements of paw thickness and visual scores)” value in data set [2] (dosing p.o. b.i.d. initiated on day 20 after disease was severe, 3, 10, 20 mpk) is “caused a reversal of paw swelling”. The concentration at 2 h is 247 ± 22 ng/mL in “in vivo” (3 mg/kg), 802 ± 35 ng/mL in “in vivo” (10 mg/kg) and 1480 ± 70 ng/mL in the data set “in vivo” (20 mg/kg).

Take `CC1(C)CC=C(c2nc(C3C[C@@]4(C)O[C@@](C)(C3)[C@H](O)[C@@H]4O)ccc2NC(=O)c2nc(C#N)c[nH]2)CC1` (stereo partly drawn) [Example 18, 4-Cyano-1H-imidazole-2-carboxylic acid[6-[(3-exo)-(6-exo,7-exo-dihydroxy-1,5-dimethyl-8-oxa-bicyclo[3.2.1]oct-3-yl)-2-(4,4-dimethyl-cyclohex-1-enyl)-pyridin-3-yl]-amidetrifluoroacetic acid saft and 4-Cyano-1H-imidazole-2-carboxylic acid[6-[(3-endo)-(6-exo,7-exo-dihydroxy-1,5-dimethyl-8-oxa-bicyclo[3.2.1]oct-3-yl)-2-(4,4-dimethyl-cyclohex-1-enyl)-pyridin-3-yl]-amidetrifluoroacetic acid salt]: the IC50 on c-fms is 0.72 nM; in data set [1] (Mus musculus, BMDM), 10 nM.

As to `C[C@]12CC(c3ccc(NC(=O)c4nc(C#N)c[nH]4)c(C4=CCCCC4)n3)C[C@](C)(O1)[C@H](O)[C@@H]2O` (stereo partly drawn) [Example 19, 4-Cyano-1H-imidazole-2-carboxylic acid[2-cyclohex-1-enyl-6-[(3-exo)-(6-exo,7-exo-dihydroxy-1,5-dimethyl-8-oxa-bicyclo[3.2.1]oct-3-yl]-pyridin-3-yl]-amidetrifluoroacetic acid salt and 4-Cyano-1H-imidazole-2-carboxylic acid[2-cyclohex-1-enyl-6-[(3-endo)-(6-exo,7-exo-dihydroxy-1,5-dimethyl-8-oxa-bicyclo[3.2.1]oct-3-yl]-pyridin-3-yl]-amidetrifluoroacetic acid salt], the half-maximal inhibitory concentration (IC50) at c-fms was 2.9 nM; in data set [1] (Mus musculus, BMDM), 27 nM.

Turning to `CC1(C)CC=C(c2nc(C3C[C@](C)(CO)O[C@](C)(CO)C3)ccc2NC(=O)c2nc(C#N)c[nH]2)CC1` (stereo partly drawn) [Example 20, 4-Cyano-1H-imidazole-2-carboxylic acid[(4-cis)-(2-cis,6-cis-bis-hydroxymethyl-2,6-dimethyl-tetrahydro-pyran-4-yl)-2-(4,4dimethyl-cyclohex-1-enyl)-pyridin-3-yl]-amide trifluoroacetic acid salt and 4-Cyano-1H-imidazole-2-carboxylic acid[(4-trans)-(2-cis,6-cis-bis-hydroxymethyl-2,6-dimethyl-tetrahydro-pyran-4-yl)-2-(4,4-dimethyl-cyclohex-1-enyl)-pyridin-3-yl]-amide trifluoroacetic acid salt], the IC50 on c-fms turned out to be 0.41 nM; in data set [1] (Mus musculus, BMDM) it was 6.5 nM.

For `CC1(C)CC=C(c2nc(C3CC(C)(C)S(=O)(=O)C(C)(C)C3)ccc2NC(=O)c2nc(C#N)c[nH]2)CC1` [Example 21, 4-Cyano-1H-imidazole-2-carboxylic acid[2-(4,4-dimethyl-cyclohex-1-enyl)-6-(2,2,6,6-tetramethyl-1,1-dioxo-hexahydro-1λ^6-thiopyran-4-yl)-pyridin-3-yl]-amide], the half-maximal inhibitory concentration (IC50) on c-fms worked out at 8.9 nM; in data set [1] (Mus musculus, BMDM), 18 nM.

With `CC1(C)CC=C(c2cc(C3CC(C)(C)S(=O)(=O)C(C)(C)C3)ccc2NC(=O)c2nc(C#N)c[nH]2)CC1` [Example 22, 4-Cyano-1H-imidazole-2-carboxylic acid[2-(4,4-dimethyl-cyclohex-1-enyl)-4-(2,2,6,6-tetramethyl-1,1-dioxo-hexahydro-1λ^6-thiopyran-4-yl)-phenyl]-amide], the IC50 on c-fms is 2 nM; in data set [1] (Mus musculus, BMDM), 3.6 nM.

Take `CC1(C)CC=C(c2cc(C3=C[C@@H]4C=C[C@H](C3)O4)ccc2NC(=O)c2ncc(C#N)[nH]2)CC1` [Example 26, N-(4-(8-oxabicyclo[3.2.1]octa-2,6-dien-3-yl)-2-(4,4-dimethylcyclohex-1-enyl)phenyl)-4-cyano-1H-imidazole-2-carboxamide (A) and N-(4-(8-oxabicyclo[3.2.1]octa-3,6-dien-3-yl)-2-(4,4dimethylcyclohex-1-enyl)phenyl)-4cyano-1H-imidazole-2-carboxamide (B)]: the IC50 on c-fms worked out at 7.1 nM; in data set [1] (read-out: BMDM IC50), 59 nM.

`CC1(C)CC=C(c2cc([C@@]3(O)CC4C=C[C@H](C3)O4)ccc2NC(=O)c2nc(C#N)c[nH]2)CC1` [Example 27, 4-Cyano-N-(2-(4,4-dimethylcyclohex-1-enyl)-4-((3-exo)-3-hydroxy-8-oxabicyclo[3.2.1]oct-6-en-3-yl)phenyl)-1H-imidazole-2-carboxamide]: the IC50 was 0.66 nM on c-fms and 6.9 nM in data set [1] (Mus musculus, BMDM).

On to `C[C@@H]1C2C=C[C@@H](O2)[C@H](C)[C@@]1(O)c1ccc(NC(=O)c2nc(C#N)c[nH]2)c(C2=CCC(C)(C)CC2)c1` [Example 28], for which the IC50 turned out to be 16 nM at c-fms and 69 nM in data set [1] (Mus musculus, BMDM).

As for `C[C@@H]1C2CC[C@@H](O2)[C@H](C)[C@@]1(O)c1ccc(NC(=O)c2nc(C#N)c[nH]2)c(C2=CCC(C)(C)CC2)c1` [Example 29, 4-Cyano-N-(2-(4,4dimethylcyclohex-1-enyl)-4-[(3-exo)-3-hydroxy-(2-endo,4endo-dimethyl)-1,5-dimethyl-8-oxabicyclo[3.2.1]octan-3-yl)pheny]-1H-imidazole-2-carboxamide], the IC50 was 14 nM on c-fms and 88 nM in data set [1] (Mus musculus, BMDM).
